Test results as given in US10696615B2, “Prenylated hydroxystilbenes” (The University of Sydney, priority 2011, dated 2020).

How the values were obtained:
NCI-H226 = assay: NCI in vitro cancer screen, Non-Small Cell Lung Cancer; assay type: cell-based, human; details: NCI-H226
HCC-2998 = assay: NCI in vitro cancer screen, Colon Cancer; assay type: cell-based, human; details: HCC-2998
MALME-3M = assay: NCI in vitro cancer screen, Melanoma; assay type: cell-based, human
SR = assay: NCI in vitro cancer screen, Leukemia; assay type: cell-based, human
CAKI-1 = assay: NCI in vitro cancer screen, Renal Cancer; assay type: cell-based, human; details: CAKI-1
ADR-RES (NCI/ADR-RES) = assay: NCI in vitro cancer screen, Ovarian Cancer; assay type: cell-based, human
UACC-257 = assay: NCI in vitro cancer screen, Melanoma; assay type: cell-based, human; details: UACC-257
SF-268 = assay: NCI in vitro cancer screen, CNS Cancer; assay type: cell-based, human; details: SF-268
COLO 205 = assay: NCI in vitro cancer screen, Colon Cancer; assay type: cell-based, human; details: COLO 205
RPMI-8226 = assay: NCI in vitro cancer screen, Leukemia; assay type: cell-based, human; details: RPMI-8226
HCT-116 = assay: NCI in vitro cancer screen, Colon Cancer; assay type: cell-based, human; details: HCT-116
EKVX = assay: NCI in vitro cancer screen, Non-Small Cell Lung Cancer; assay type: cell-based, human
786-0 = assay: NCI in vitro cancer screen, Renal Cancer; assay type: cell-based, human; details: 786-0
LOX IMVI = assay: NCI in vitro cancer screen, Melanoma; assay type: cell-based, human
SN12C = assay: NCI in vitro cancer screen, Renal Cancer; assay type: cell-based, human
HL-60 (TB) = assay: NCI in vitro cancer screen, Leukemia; assay type: cell-based, human; details: HL-60 (TB)
[1] = test system: MDA-MB-231 (MDA-MB-231/ATCC); assay: NCI in vitro cancer screen, Breast Cancer; assay type: cell-based, human; details: MDA-MB-231
MOLT-4 = assay: NCI in vitro cancer screen, Leukemia; assay type: cell-based, human; details: MOLT-4
NCI-H522 = assay: NCI in vitro cancer screen, Non-Small Cell Lung Cancer; assay type: cell-based, human; details: NCI-H522
OVCAR-4 = assay: NCI in vitro cancer screen, Ovarian Cancer; assay type: cell-based, human; details: OVCAR-4
IGROV1 = assay: NCI in vitro cancer screen, Ovarian Cancer; assay type: cell-based, human; details: IGROV1
HOP-92 = assay: NCI in vitro cancer screen, Non-Small Cell Lung Cancer; assay type: cell-based, human; details: HOP-92
A498 = assay: NCI in vitro cancer screen, Renal Cancer; assay type: cell-based, human; details: A498
HCT-15 = assay: NCI in vitro cancer screen, Colon Cancer; assay type: cell-based, human; details: HCT-15
M14 = assay: NCI in vitro cancer screen, Melanoma; assay type: cell-based, human; details: M14
HOP-62 = assay: NCI in vitro cancer screen, Non-Small Cell Lung Cancer; assay type: cell-based, human; details: HOP-62
HS 578T = assay: NCI in vitro cancer screen, Breast Cancer; assay type: cell-based, human
SF-539 = assay: NCI in vitro cancer screen, CNS Cancer; assay type: cell-based; details: SF-539
[2] = Homo sapiens, read-out: LC50 (the source's name)

**Q.** `CC(C)=CCOc1cc(O)cc(/C=C/c2ccc(O)c(O)c2)c1` [USYDS4, (E)-3-(3-methyl-2-butenyloxy)-3′,4′,5-trihydroxystilbene] was tested. Which GI50 (NCI-H226; Homo sapiens) did it give?
**A.** The GI50 was 5.14 µM.

**Q.** And the LC50 (50% lethal concentration) (NCI-H226; Homo sapiens)?
**A.** The LC50 (50% lethal concentration) was 78 µM.

**Q.** What about the TGI (NCI-H226) of the same compound?
**A.** Its TGI is 23.1 µM.

**Q.** What about the TGI (HCC-2998) of the same compound?
**A.** The TGI was 19.0 µM.

**Q.** What about the GI50 (HCC-2998; Homo sapiens) of the same compound?
**A.** Its GI50 is 5.16 µM.

**Q.** What about the CC50 (HCC-2998; [2]) of the same compound?
**A.** Its CC50 is 53.4 µM.

**Q.** And the GI50 (MALME-3M; Homo sapiens, Malme-3M)?
**A.** Its GI50 is 7.25 µM.

**Q.** And the CC50 (MALME-3M; Homo sapiens, Malme-3M, read-out: LC50 (the source's name))?
**A.** Its CC50 is greater than 100 µM.

**Q.** What about the TGI (MALME-3M; MALME-3M) of the same compound?
**A.** Its TGI is 30.6 µM.

**Q.** What about the TGI (SR) of the same compound?
**A.** Its TGI is greater than 100 µM.

**Q.** And the GI50 (SR; Homo sapiens)?
**A.** The GI50 was 0.95 µM.

**Q.** What about the CC50 (SR; [2]) of the same compound?
**A.** Its CC50 is greater than 100 µM.

**Q.** And the TGI (CAKI-1)?
**A.** The TGI was greater than 100 µM.

**Q.** What about the GI50 (CAKI-1; Homo sapiens) of the same compound?
**A.** The GI50 was 5.25 µM.

**Q.** And the CC50 (CAKI-1; [2])?
**A.** The CC50 was greater than 100 µM.

**Q.** And the TGI (ADR-RES (NCI/ADR-RES); ADR-RES)?
**A.** Its TGI is 48.3 µM.

**Q.** And the GI50 (ADR-RES (NCI/ADR-RES); Homo sapiens, NCI/ADR-RES)?
**A.** Its GI50 is 1.11 µM.

**Q.** And the CC50 (ADR-RES (NCI/ADR-RES); Homo sapiens, NCI/ADR-RES, read-out: LC50 (the source's name))?
**A.** Its CC50 is greater than 100 µM.

**Q.** And the GI50 (UACC-257; Homo sapiens)?
**A.** Its GI50 is 5.44 µM.

**Q.** And the CC50 (UACC-257; [2])?
**A.** Its CC50 is 48.6 µM.

**Q.** And the TGI (UACC-257)?
**A.** The TGI was 19.4 µM.

**Q.** And the GI50 (SF-268; Homo sapiens)?
**A.** Its GI50 is 3.89 µM.

**Q.** And the CC50 (SF-268; [2])?
**A.** The CC50 was greater than 100 µM.

**Q.** And the TGI (SF-268)?
**A.** Its TGI is 23.2 µM.

**Q.** And the TGI (COLO 205)?
**A.** The TGI was 23.0 µM.

**Q.** And the GI50 (COLO 205; Homo sapiens)?
**A.** The GI50 was 9.72 µM.

**Q.** What about the CC50 (COLO 205; [2]) of the same compound?
**A.** Its CC50 is 53.5 µM.

**Q.** And the GI50 (RPMI-8226; Homo sapiens)?
**A.** The GI50 was 2.35 µM.

**Q.** What about the CC50 (RPMI-8226; [2]) of the same compound?
**A.** Its CC50 is greater than 100 µM.

**Q.** What about the TGI (RPMI-8226) of the same compound?
**A.** The TGI was 25.4 µM.

**Q.** And the TGI (HCT-116)?
**A.** Its TGI is 16.0 µM.

**Q.** And the GI50 (HCT-116; Homo sapiens)?
**A.** Its GI50 is 4.55 µM.

**Q.** And the LC50 (concentration killing 50% of cells) (HCT-116; Homo sapiens)?
**A.** Its LC50 (concentration killing 50% of cells) is 40.6 µM.

**Q.** What about the TGI (EKVX) of the same compound?
**A.** Its TGI is 59.6 µM.

**Q.** And the GI50 (EKVX; Homo sapiens)?
**A.** The GI50 was 9.55 µM.

**Q.** And the CC50 (EKVX; [2])?
**A.** The CC50 was greater than 100 µM.

**Q.** What about the TGI (786-0) of the same compound?
**A.** The TGI was 20.5 µM.

**Q.** And the GI50 (786-0; Homo sapiens)?
**A.** The GI50 was 4.41 µM.

**Q.** What about the LC50 (50% net cell kill) (786-0; Homo sapiens) of the same compound?
**A.** The LC50 (50% net cell kill) was greater than 100 µM.

**Q.** What about the TGI (LOX IMVI) of the same compound?
**A.** The TGI was 19.3 µM.

**Q.** And the GI50 (LOX IMVI; Homo sapiens)?
**A.** Its GI50 is 3.82 µM.

**Q.** What about the CC50 (LOX IMVI; [2]) of the same compound?
**A.** The CC50 was 58.5 µM.

**Q.** What about the TGI (SN12C) of the same compound?
**A.** The TGI was 20.0 µM.

**Q.** What about the GI50 (SN12C; Homo sapiens) of the same compound?
**A.** Its GI50 is 3.94 µM.

**Q.** And the CC50 (SN12C; [2])?
**A.** Its CC50 is 74.1 µM.

**Q.** And the TGI (HL-60 (TB))?
**A.** Its TGI is 6.04 µM.

**Q.** What about the GI50 (HL-60 (TB); Homo sapiens) of the same compound?
**A.** The GI50 was 2.59 µM.

**Q.** And the CC50 (HL-60 (TB); [2])?
**A.** The CC50 was greater than 100 µM.

**Q.** What about the GI50 ([1]; Homo sapiens) of the same compound?
**A.** The GI50 was 1.04 µM.

**Q.** And the CC50 [1, 2]?
**A.** The CC50 was greater than 100 µM.

**Q.** What about the TGI [1] of the same compound?
**A.** Its TGI is 18.4 µM.

**Q.** What about the GI50 (MOLT-4; Homo sapiens) of the same compound?
**A.** The GI50 was 4.31 µM.

**Q.** What about the CC50 (MOLT-4; [2]) of the same compound?
**A.** Its CC50 is greater than 100 µM.

**Q.** What about the TGI (MOLT-4) of the same compound?
**A.** The TGI was 21.6 µM.

**Q.** And the GI50 (NCI-H522; Homo sapiens)?
**A.** The GI50 was 1.07 µM.

**Q.** What about the CC50 (NCI-H522; [2]) of the same compound?
**A.** The CC50 was 6.04 µM.

**Q.** What about the TGI (NCI-H522) of the same compound?
**A.** The TGI was 2.54 µM.

**Q.** What about the GI50 (OVCAR-4; Homo sapiens) of the same compound?
**A.** Its GI50 is 3.98 µM.

**Q.** And the CC50 (OVCAR-4; [2])?
**A.** The CC50 was greater than 100 µM.

**Q.** What about the TGI (OVCAR-4) of the same compound?
**A.** Its TGI is 50.4 µM.

**Q.** And the GI50 (IGROV1; Homo sapiens, IGROV-1)?
**A.** Its GI50 is 3.74 µM.

**Q.** And the CC50 (IGROV1; Homo sapiens, IGROV-1, read-out: LC50 (the source's name))?
**A.** Its CC50 is greater than 100 µM.

**Q.** What about the TGI (IGROV1) of the same compound?
**A.** Its TGI is 44.8 µM.

**Q.** What about the TGI (HOP-92) of the same compound?
**A.** Its TGI is 13.6 µM.

**Q.** And the GI50 (HOP-92; Homo sapiens)?
**A.** Its GI50 is 1.92 µM.

**Q.** What about the CC50 (HOP-92; [2]) of the same compound?
**A.** The CC50 was 62.3 µM.

**Q.** What about the TGI (A498) of the same compound?
**A.** The TGI was 23.5 µM.

**Q.** And the GI50 (A498; Homo sapiens)?
**A.** The GI50 was 9.07 µM.

**Q.** And the CC50 (A498; [2])?
**A.** The CC50 was 55.2 µM.

**Q.** What about the TGI (HCT-15) of the same compound?
**A.** Its TGI is 34.9 µM.

**Q.** What about the GI50 (HCT-15; Homo sapiens) of the same compound?
**A.** Its GI50 is 1.77 µM.

**Q.** What about the CC50 (HCT-15; [2]) of the same compound?
**A.** The CC50 was greater than 100 µM.

**Q.** What about the GI50 (M14; Homo sapiens) of the same compound?
**A.** Its GI50 is 0.91 µM.

**Q.** What about the CC50 (M14; [2]) of the same compound?
**A.** The CC50 was 46.3 µM.

**Q.** And the TGI (M14)?
**A.** Its TGI is 15.4 µM.

**Q.** What about the TGI (HOP-62) of the same compound?
**A.** The TGI was 26.3 µM.

**Q.** And the GI50 (HOP-62; Homo sapiens)?
**A.** The GI50 was 6.49 µM.

**Q.** And the CC50 (HOP-62; [2])?
**A.** Its CC50 is 83.4 µM.

**Q.** What about the TGI (HS 578T) of the same compound?
**A.** Its TGI is 7.11 µM.

**Q.** And the GI50 (HS 578T; Homo sapiens)?
**A.** Its GI50 is 1 µM.

**Q.** What about the CC50 (HS 578T; [2]) of the same compound?
**A.** Its CC50 is greater than 100 µM.

**Q.** What about the GI50 (SF-539; Homo sapiens) of the same compound?
**A.** Its GI50 is 3.45 µM.

**Q.** And the CC50 (SF-539; [2])?
**A.** Its CC50 is 97.5 µM.

**Q.** And the TGI (SF-539)?
**A.** Its TGI is 22.3 µM.
